Each block holds one molecule with its values, some of them ahead of it. The source made the active and inactive calls. The calls are words filed in the database; no cut-off is given here.
Assays:
[1] = tested on: Cellular tumor antigen p53 (Homo sapiens), P04637 [UNDEFINED MUTATION]; experiment: Induction of p53 mutant-dependent growth suppression of human HCT15 cells; type: cell-based; conditions: HCT-15
[2] = target: Cellular tumor antigen p53 (Homo sapiens) (UniProt P04637); experiment: Induction of wild type p53-dependent growth suppression of human RKO cells; type: cell-based
[3] = target: Cellular tumor antigen p53 (Homo sapiens) (UniProt P04637); experiment: Induction of wild type p53-dependent growth suppression of human HCT116 cells; type: cell-based; conditions: HCT-116
[4] = target: Cellular tumor antigen p53 (Homo sapiens) (UniProt P04637); experiment: Induction of wild type p53-dependent growth suppression of human MKN45 cells; type: cell-based; conditions: MKN-45
[5] = tested on: Cellular tumor antigen p53 (Homo sapiens), P04637 [UNDEFINED MUTATION]; experiment: Induction of p53 mutant-dependent growth suppression of human MKN7 cells; type: cell-based; conditions: MKN-7
[6] = (§1) Cytotoxicity against p53-deficient human LNZTA3 cells assessed as growth inhibition after 72 hrs by MTT assay; type: functional, cell-based; conditions: LNZTA3, 72 h
[7] = target: Cellular tumor antigen p53 (Homo sapiens) (UniProt P04637); experiment: Induction of wild type p53-dependent growth suppression of human MCF7 cells; type: cell-based
[8] = tested on: Cellular tumor antigen p53 (Homo sapiens), P04637 [UNDEFINED MUTATION]; experiment: Induction of p53 mutant-dependent growth suppression of human […] cells
[9] = target: Cellular tumor antigen p53 (Homo sapiens) (UniProt P04637); experiment: Induction of p53-dependent growth suppression of human LNZTA3 cells after 72 hrs by MTT assay; type: cell-based
[10] = tested on: LNZTA3; experiment: as §1; type: functional, cell-based
[11] = tested on: LNZTA3; experiment: Cytotoxicity against p53-deficient human LNZTA3 cells assessed as growth inhibition at >100 uM after 72 hrs by MTT assay; type: functional, cell-based

Cellular tumor antigen p53 (Homo sapiens), P04637 [UNDEFINED MUTATION], sequence (P04637 whole entry, looked up, stated change not applied): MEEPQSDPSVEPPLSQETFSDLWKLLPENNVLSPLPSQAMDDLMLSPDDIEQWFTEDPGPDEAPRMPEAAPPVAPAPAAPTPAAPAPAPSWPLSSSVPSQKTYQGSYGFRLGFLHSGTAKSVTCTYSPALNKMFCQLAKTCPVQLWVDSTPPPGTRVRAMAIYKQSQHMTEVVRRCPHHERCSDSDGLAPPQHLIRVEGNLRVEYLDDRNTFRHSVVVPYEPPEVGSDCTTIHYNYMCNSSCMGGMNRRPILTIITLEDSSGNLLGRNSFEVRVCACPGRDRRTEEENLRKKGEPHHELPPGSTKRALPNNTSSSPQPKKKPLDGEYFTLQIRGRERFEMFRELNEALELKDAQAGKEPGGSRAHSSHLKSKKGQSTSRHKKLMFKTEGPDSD
Cellular tumor antigen p53 (Homo sapiens), sequence (P04637 whole entry, looked up): as the sequence (P04637 whole entry, looked up, stated change not applied) above

Compound: O=C1c2cc(O[C@@H]3O[C@@H]([C@H](O)CO)[C@H](O)[C@H]3O)cc(O)c2C(=O)c2c1cc1c(c2O)[C@@H]2CCO[C@@H]2O1
Activity [9]: Active
Activity [1]: Active
Activity [2]: Active
Activity [3]: Active
Activity [4]: Active
Activity [5]: Active
growth inhibition (GI) [10]: Active
Activity [7]: Active
Activity [8]: Active

Compound: CCCCC[C@H](O)c1c(O)cc2c(c1O)C(=O)c1c(O)cc(O)cc1C2=O
Activity [9]: Active

Compound: CCCCC[C@H](O)c1c(O[C@@H]2O[C@@H]([C@H](O)CO)[C@H](O)[C@H]2O)cc2c(c1O)C(=O)c1c(O)cc(O)cc1C2=O
Activity [9]: Active
Activity [1]: Active
Activity [2]: Active
Activity [3]: Active
Activity [4]: Active
Activity [5]: Active
growth inhibition (GI) [10]: Active
Activity [7]: Active
Activity [8]: Active

More lines, main results first:

Activity [1]: Active
Activity [2]: Active
Activity [3]: Active
Activity [4]: Active
Activity [5]: Active
Activity [7]: Active
Activity [8]: Active
Compound: CCCCC[C@H](O[C@@H]1O[C@@H]([C@H](O)CO)[C@H](O)[C@H]1OC(C)=O)c1c(O)cc2c(c1O)C(=O)c1c(O)cc(O)cc1C2=O
IC50 [6]: 32 µM

Activity [9]: Active
Activity [1]: Active
Activity [2]: Active
Activity [3]: Active
Activity [4]: Active
Activity [5]: Active
Activity [7]: Active
Activity [8]: Active
Compound: CC(=O)CCC[C@H](O[C@@H]1O[C@@H]([C@H](O)CO)[C@H](O)[C@H]1O)c1c(O)cc2c(c1O)C(=O)c1c(O)cc(O)cc1C2=O
growth inhibition (GI) [11]: inactive

Activity [1]: Active
Activity [2]: Active
Activity [3]: Active
Activity [4]: Active
Activity [5]: Active
Activity [7]: Active
Activity [8]: Active
Compound: CCCCC[C@H](O[C@@H]1O[C@@H]([C@H](O)CO)[C@H](O)[C@H]1O)c1c(O)cc2c(c1O)C(=O)c1c(O)cc(O)cc1C2=O
IC50 [6]: 32 µM

— ChEMBL document CHEMBL3421582, “Quinofuracins A-E, produced by the fungus Staphylotrichum boninense PF1444, show p53-dependent growth suppression” (J Nat Prod, 2015)
